Values after ≈ are worked out from the molar mass of the structure shown. One block for each compound: values may come before it.
Columns and labels:
[1] = ABTS˙+ radical scavenging assay
Description: The stock solutions (1 mg/mL) of the tested compounds and the controls were obtained, by dissolving the substances in dimethyl sulfoxide (DMSO). Using Jasco V-530, an UV-VIS spectrophotometer (Jasco International Co., Ltd., Tokyo, Japan), we performed the colorimetric determinations in low-volume single-use 10 mm width cuvettes.
The assays were performed in triplicate and the results are presented as averages for each assay.

[2] = NO˙ radical scavenging assay (Griess reaction); details: PBS pH 7.4, sodium nitroprusside
Description: The scavenging of the NO˙ radical was performed by applying previously reported protocols. The in vitro protocol describes the decomposition of sodium nitroprusside in phosphate buffered saline (PBS) at pH = 7.4. The NO˙ radicals would be involved in a Griess reaction if they were not captured by the tested compounds. This reaction results from the formation of an azo dye, with maximum absorption at 546 nm. This azo dye is formed from sulfanilic acid and naphthyl ethylenediamine dichloride.

[3] = Phosphomolybdate assay for total antioxidant capacity (TAC); parameters: concentration or dose not given beside the values; details: for TAC, % of Activity of Trolox: relative to Trolox; for TAC, % of Activity of Ascorbic Acid: relative to ascorbic acid
Description: Using the phosphomolybdate assay, we determined the total antioxidant capacity (TAC) of the tested compounds. We measured the solutions’ absorbances against a blank sample at λ = 695 nm, using a previously reported procedure by our group, based on initial literature reports. Using Equation (4), we calculated the TAC of 5a–d and 6a–d compounds.
At acidic pH, the tested compounds transfer one electron to Mo^6+ to reduce it to Mo^5+.

[4] = Reducing power (RP) assay; parameters: concentration or dose not given beside the values; details: for RP, % of Activity of Trolox: relative to Trolox; for RP, % of Activity of Ascorbic Acid: relative to ascorbic acid
Description: Herein, the iron (III) is not free in the solution as it was in the FRAP assay and is complexed by cyanide ions. The evaluation of the reducing power (RP) was performed at a pH closer to neutral (pH = 6.6); this is different from the FRAP test, which is performed in an acidic environment. Against a blank sample, the absorbances were measured at λ = 700 nm. The followed protocol was based on the adaptation of previously reported protocols and was previously reported by our group. Using Equation (4), we calculated the reducing power of the 5a–d and 6a–d compounds as a percentage of the reference compounds activity.
The evaluated compounds can reduce ferricyanide to ferrocyanide, in the presence of ferric ions, resulting in the Perl’s Prussian which gives blue. The higher the percentage of reducing power, the higher was the absorbance that was measured due to a higher amount of colored complex resulting from the reaction.

[5] = Fe^2+ chelation assay (ferrozine competition)
Description: In the protocol used for evaluating the Fe^2+ chelating ability of the compounds, the absorbances of the solutions were determined at λ = 562 nm, against a blank sample. The method was adapted from the initial report of Benzie and Strain et al., which was previously reported by our group. Using Equation (5), we calculated the iron chelation capacities of the 5a–d and 6a–d compounds:(5) iron chelation (%)=control absorbance−sample absorbance/control absorbance×100
The chelating capacity of the tested compounds of Fe^2+ was evaluated based on their competition for Fe^2+ with ferrozine.

[6] = test system: A549 (lung adenocarcinoma) cells; test: Cytotoxicity, Alamar blue assay, A549 cells; type: cell-based; details: Homo sapiens, 24 h exposure
Description: Normal human foreskin (BJ) fibroblasts and two types of cancer cells, namely A549 (lung adenocarcinoma) and LNCaP (prostate carcinoma) purchased from American Type Culture Collection (Manassas, VA, USA), were used in the experiments. Each cell line was maintained in a different culture medium, depending on the metabolic necessities of the cells. BJ cells were maintained in Dulbecco’s modified Eagle’s medium (DMEM) with low glucose. A549 cells were maintained in DMEM with high glucose […], while LNCaP cells were grown in Roswell Park Memorial Institute (RPMI) 1640 medium with high glucose (5 g/L). All media used were supplemented with 10% fetal bovine serum (FBS) and were refreshed every two days. Cells were used in experiments or subcultured when they reached 70–80% confluence.
In 100 µL in 96-well plates, a number of 30,000 LNCaP cells, 15,000 A549 cells, and 7500 normal (BJ) cells were seeded. Because the cells have different sizes and volumes, the purpose of the different seedings was to achieve a confluency of 70–80% after 24 h. All types of cells were further exposed to the synthesized compounds (5a–d and 6a–d) for 24 h, at a concentration ranging from 12.5 to 100 µg/mL. Post-exposure, the media were removed, and the cells were washed with phosphate buffer saline (PBS). Their viability was evaluated using Alamar blue (AB) assay as previously described. Briefly, the cells were incubated with a 200 µM resazurin solution for 4 h. Using a Synergy 2 multi-mode microplate reader, we measured the fluorescence. The measurement was performed at λexcitation = 530/25 nm; λemission = 590/35 nm. We conducted the experiments using three biological replicates, each one including 6 technical replicates. As negative controls (NC), cells exposed to culture medium containing 0.2% DMSO were used. Compared to the NC (100%), the results were expressed as relative values. We used IC50 values for the potency evaluation, and calculated them for each cell line, using the dose-effect curves obtained by fitting the experimental data with a 4-parameter logistic curve.
Mean values ± standard deviation (SD) values of at least three biological replicates were used to calculate experimental data. One-way analysis of variance (ANOVA) with a post hoc Holm–Sidak test was used to statistically examine the data. Using SigmaPlot 11.0 software (Systat, Software Inc., Chicago, IL, USA), we performed the graphical display and data analysis. From a statistical point of view, the results were considered different, at values of p < 0.05.

IC50 [1]: 16.9 µM | IC50 (ABTS˙^+ scavenging) [1]: 7.17 µg/mL (≈ 16.9 µM) | melting point: 230 °C
SMILES: C=CCn1c(SCC(=O)NN=C(C)c2ccc(O)cc2O)nc2ccccc2c1=O [Compound 6a, 2-((3-Allyl-4-oxo-3,4-dihydroquinazolin-2-yl)thio)-N’-(1-(2,4-dihydroxyphenyl)ethylidene)acetohydrazide]
% of ABTS˙^+ Scavenging ([1]; 0.83 µg/mL): 27.03% | % of ABTS˙^+ Scavenging ([1]; 1.67 µg/mL): 30.08% | % of ABTS˙^+ Scavenging ([1]; 3.33 µg/mL): 37.19% | % of ABTS˙^+ Scavenging ([1]; 4.99 µg/mL): 42.27% | % of ABTS˙^+ Scavenging ([1]; 6.66 µg/mL): 50.03% | % of ABTS˙^+ Scavenging ([1]; 9.99 µg/mL): 60.55% | % of ABTS˙^+ Scavenging ([1]; 13.32 µg/mL): 70.24% | % of NO˙ Scavenged [2]: 31.82% | TAC, % of Activity of Trolox [3]: 94.38% | TAC, % of Activity of Ascorbic Acid [3]: 48.91% | RP, % of Activity of Trolox [4]: 30.73% | RP, % of Activity of Ascorbic Acid [4]: 21.09% | Ferrous ions Chelation Capacity (%) ([5]; 17.70 µg/mL): - (- represents less than 5%) | Ferrous ions Chelation Capacity (%) ([5]; 20.59 µg/mL): - (- represents less than 5%) | Ferrous ions Chelation Capacity (%) ([5]; 29.41 µg/mL): - (- represents less than 5%) | Ferrous ions Chelation Capacity (%) ([5]; 44.11 µg/mL): - (- represents less than 5%) | Ferrous ions Chelation Capacity (%) ([5]; 58.82 µg/mL): - (- represents less than 5%) | Ferrous ions Chelation Capacity (%) ([5]; 88.23 µg/mL): - (- represents less than 5%) | Ferrous ions Chelation Capacity (%) ([5]; 117.64 µg/mL): - (- represents less than 5%) | Ferrous ions Chelation Capacity (%) ([5]; 257.46 µg/mL): - (- represents less than 5%) | Ferrous ions Chelation Capacity (%) ([5]; 343.28 µg/mL): - (- represents less than 5%) | IC50 [6]: 35.7 µg/mL

IC50 [1]: 8.7 µM | IC50 (ABTS˙^+ scavenging) [1]: 4.13 µg/mL (≈ 8.7 µM)
SMILES: CC(=NNC(=O)CSc1nc2ccccc2c(=O)n1Cc1ccccc1)c1ccc(O)cc1O [Compound 6b, 2-((3-Benzyl-4-oxo-3,4-dihydroquinazolin-2-yl)thio)-N’-(1-(2,4-dihydroxyphenyl)ethylidene)acetohydrazide]
% of ABTS˙^+ Scavenging ([1]; 0.83 µg/mL): 26.26% | % of ABTS˙^+ Scavenging ([1]; 1.67 µg/mL): 33.32% | % of ABTS˙^+ Scavenging ([1]; 3.33 µg/mL): 44.60% | % of ABTS˙^+ Scavenging ([1]; 4.99 µg/mL): 55.88% | % of ABTS˙^+ Scavenging ([1]; 6.66 µg/mL): 68.23% | % of ABTS˙^+ Scavenging ([1]; 9.99 µg/mL): 90.98% | % of ABTS˙^+ Scavenging ([1]; 13.32 µg/mL): + (+ represents more than 95%) | % of NO˙ Scavenged [2]: 33.31% | TAC, % of Activity of Trolox [3]: 101.03% | TAC, % of Activity of Ascorbic Acid [3]: 52.36% | RP, % of Activity of Trolox [4]: 29.01% | RP, % of Activity of Ascorbic Acid [4]: 19.91% | Ferrous ions Chelation Capacity (%) ([5]; 17.70 µg/mL): - (- represents less than 5%) | Ferrous ions Chelation Capacity (%) ([5]; 20.59 µg/mL): - (- represents less than 5%) | Ferrous ions Chelation Capacity (%) ([5]; 29.41 µg/mL): - (- represents less than 5%) | Ferrous ions Chelation Capacity (%) ([5]; 44.11 µg/mL): - (- represents less than 5%) | Ferrous ions Chelation Capacity (%) ([5]; 58.82 µg/mL): - (- represents less than 5%) | Ferrous ions Chelation Capacity (%) ([5]; 88.23 µg/mL): - (- represents less than 5%) | Ferrous ions Chelation Capacity (%) ([5]; 117.64 µg/mL): - (- represents less than 5%) | Ferrous ions Chelation Capacity (%) ([5]; 257.46 µg/mL): - (- represents less than 5%) | Ferrous ions Chelation Capacity (%) ([5]; 343.28 µg/mL): - (- represents less than 5%) | IC50 [6]: 42.2 µg/mL

IC50 [1]: 3.87 µM | IC50 (ABTS˙^+ scavenging) [1]: 1.65 µg/mL (≈ 3.87 µM) | melting point: 213 °C
SMILES: C=CCn1c(SCC(=O)NN=Cc2ccc(O)c(O)c2O)nc2ccccc2c1=O [Compound 5a, 2-((3-Allyl-4-oxo-3,4-dihydroquinazolin-2-yl)thio)-N’-(2,3,4-trihydroxybenzylidene)acetohydrazide]
% of ABTS˙^+ Scavenging ([1]; 0.83 µg/mL): 38.14% | % of ABTS˙^+ Scavenging ([1]; 1.67 µg/mL): 51.47% | % of ABTS˙^+ Scavenging ([1]; 3.33 µg/mL): 72.00% | % of ABTS˙^+ Scavenging ([1]; 4.99 µg/mL): + (+ represents more than 95%) | % of ABTS˙^+ Scavenging ([1]; 6.66 µg/mL): + (+ represents more than 95%) | % of ABTS˙^+ Scavenging ([1]; 9.99 µg/mL): + (+ represents more than 95%) | % of ABTS˙^+ Scavenging ([1]; 13.32 µg/mL): + (+ represents more than 95%) | % of NO˙ Scavenged [2]: 38.39% | TAC, % of Activity of Trolox [3]: 176.42% | TAC, % of Activity of Ascorbic Acid [3]: 91.43% | RP, % of Activity of Trolox [4]: 92.09% | RP, % of Activity of Ascorbic Acid [4]: 63.20% | Ferrous ions Chelation Capacity (%) ([5]; 17.70 µg/mL): - (- represents less than 5%) | Ferrous ions Chelation Capacity (%) ([5]; 20.59 µg/mL): - (- represents less than 5%) | Ferrous ions Chelation Capacity (%) ([5]; 29.41 µg/mL): - (- represents less than 5%) | Ferrous ions Chelation Capacity (%) ([5]; 44.11 µg/mL): - (- represents less than 5%) | Ferrous ions Chelation Capacity (%) ([5]; 58.82 µg/mL): 18.44% | Ferrous ions Chelation Capacity (%) ([5]; 88.23 µg/mL): 34.12% | Ferrous ions Chelation Capacity (%) ([5]; 117.64 µg/mL): 45.93% | Ferrous ions Chelation Capacity (%) ([5]; 257.46 µg/mL): 71.76% | Ferrous ions Chelation Capacity (%) ([5]; 343.28 µg/mL): 86.30% | IC50 [6]: 30.9 µg/mL

IC50 [1]: 9.84 µM | IC50 (ABTS˙^+ scavenging) [1]: 4.06 µg/mL (≈ 9.84 µM)
SMILES: CCn1c(SCC(=O)NN=C(C)c2ccc(O)cc2O)nc2ccccc2c1=O [Compound 6c, N’-(1-(2,4-dihydroxyphenyl)ethylidene)-2-((3-ethyl-4-oxo-3,4-dihydroquinazolin-2-yl)thio)acetohydrazide]
% of ABTS˙^+ Scavenging ([1]; 0.83 µg/mL): 29.08% | % of ABTS˙^+ Scavenging ([1]; 1.67 µg/mL): 34.73% | % of ABTS˙^+ Scavenging ([1]; 3.33 µg/mL): 43.19% | % of ABTS˙^+ Scavenging ([1]; 4.99 µg/mL): 54.47% | % of ABTS˙^+ Scavenging ([1]; 6.66 µg/mL): 68.58% | % of ABTS˙^+ Scavenging ([1]; 9.99 µg/mL): 91.60% | % of ABTS˙^+ Scavenging ([1]; 13.32 µg/mL): + (+ represents more than 95%) | % of NO˙ Scavenged [2]: 30.62% | TAC, % of Activity of Trolox [3]: 110.05% | TAC, % of Activity of Ascorbic Acid [3]: 57.03% | RP, % of Activity of Trolox [4]: 28.98% | RP, % of Activity of Ascorbic Acid [4]: 19.89% | Ferrous ions Chelation Capacity (%) ([5]; 17.70 µg/mL): - (- represents less than 5%) | Ferrous ions Chelation Capacity (%) ([5]; 20.59 µg/mL): - (- represents less than 5%) | Ferrous ions Chelation Capacity (%) ([5]; 29.41 µg/mL): - (- represents less than 5%) | Ferrous ions Chelation Capacity (%) ([5]; 44.11 µg/mL): - (- represents less than 5%) | Ferrous ions Chelation Capacity (%) ([5]; 58.82 µg/mL): - (- represents less than 5%) | Ferrous ions Chelation Capacity (%) ([5]; 88.23 µg/mL): - (- represents less than 5%) | Ferrous ions Chelation Capacity (%) ([5]; 117.64 µg/mL): - (- represents less than 5%) | Ferrous ions Chelation Capacity (%) ([5]; 257.46 µg/mL): - (- represents less than 5%) | Ferrous ions Chelation Capacity (%) ([5]; 343.28 µg/mL): - (- represents less than 5%) | IC50 [6]: > 100 µg/mL
